Test [1] concerns IRE1. The test is described as follows: Xbp-1 splicing assay (RT-PCR) in HEK-293T cells. Format: cell-based, human. As to conditions: 1 mM DTT, 2 h.
The subject of test [2] is Integrated Stress Response. The test is described as follows: UL148-GFP visual probe for ISR inhibition in living cells. As to conditions: ARPE-19 cells, UL148-GFP induced 18 hours with 100 ng/mL doxycycline hyclate; 200 nM ISRIB in FIG. 2B. It counts as cell-based. An excerpt:
The disclosed technology is based on UL148, a viral endoplasmic reticulum (ER)-resident protein, which influences the expression of a viral glycoprotein complex required for cell entry. UL148 activates the Unfolded Protein Response (UPR), resulting in stress-regulated translation of ISR mRNAs such as ATF4. ISR/UPR activation by UL148 causes the formation of large membranous structures from the ER, at which UL148 itself accumulates. […] Other fluorescent proteins may include Allophycocyanin, Brainbow, Cameleon, FMN-binding fluorescent protein, Glutamate-sensitive fluorescent reporter, MCherry, Phycoerythrin, Red fluorescent protein, RoGFP, SmURFP, Synapto-pHluorin, and Yellow fluorescent protein. […] Instead, treatment with an ISR-inhibitor (e.g., ISRIB) causes UL148-GFP to be evenly distributed across the ER such that the GFP staining is uniform and reticular. Therefore, the simple task of determining whether GFP signal is present and whether it is uniform or punctate provides a facile read-out that can be automated to enable high throughput screening for novel small molecule inhibitors that inhibit the ISR.
ARPE-19 epithelial cells carrying a doxycycline inducible gene expression cassette encoding UL148-GFP were treated for 18 hours with 100 ng/mL doxycycline hyclate to induce UL148-GFP expression. In panel A, (FIG. 2A) UL148-GFP was induced in the absence of ISRIB. […]

For the next test, the system named is PERK. The test is described as follows: Western blot for PERK activation in stably transduced ARPE-19 cells. As to conditions: 200 nM Tg, 4 h. Format: cell-based. In general terms: In western blotting, separated proteins are transferred to a membrane and probed.
Test [3] concerns IRE1. The test is described as follows: Western blot for phospho-IRE1 (Ser724) in fibroblasts. It counts as cell-based, human. As to conditions: Tg-treated fibroblast lysates vs mock-treated, noninfected cells.
In test [4] the test system is protein synthesis (mRNA translation) in ARPE-19 cells. The test can be described thus: Metabolic labeling (35S Met/Cys incorporation) in i148HA and i159HA ARPE-19 cells. It counts as cell-based. As to conditions: 24 h Dox induction, 30 min 35S Met/Cys pulse, phosphorimager analysis. As to the method:
Having isolated stably transduced ARPE-19 cell populations, the inventors confirmed that that anti-HA immunoreactive polypeptides of the expected size for UL148 (i148^HA) or Rh159 (i159^HA) were induced upon treatment with 100 ng/ml doxycycline (Dox). Furthermore, expression of neither protein caused any overt reduction in cell viability or number, as measured by trypan blue exclusion following 24 h of Dox induction. The inventors therefore concluded that the i148^HA and i159^HA ARPE-19 cells were suitable to address whether UL148 might affect rates of mRNA translation in metabolic labeling studies. For these experiments, i148^HA and i159^HA cells were induced (or mock induced) for transgene expression for 24 h and then incubated in the presence of ^35S-labeled methionine and cysteine for 30 min. In parallel, labeling was also carried out using i159^HA cells that were incubated in the presence of either thapsigargin (Tg) or carrier alone, so as to provide positive and negative controls, respectively, for UPR induction.
Metabolic labeling. i159^HA or i148^HA cells were seeded at 2×10^5 cells per well in a 24-well cluster plate in Gibco Opti-MEM reduced serum medium (Thermo Fisher) supplemented with 2.5% tetracycline (Tet)-free FBS (Clontech 631101). […] The relative signal per lane was calculated using Bio-Rad 1-D analysis software by reading the signal volume (counts·mm^2) in each lane. […]

For `O[C@H](CS)[C@H](O)CS` (racemic) [DTT, dithiothreitol], the “splicing of the 26-nt intron from Xbp-1 mRNA” value in the test on IRE1 [1] is on record as “spliced from nearly all the Xbp-1 mRNA”. For the molecule `O=C(COc1ccc(Cl)cc1)NC1CCC(NC(=O)COc2ccc(Cl)cc2)CC1` (centres unmarked) [ISRIB], the “formation of UL148 structures” value in test [2] is “completely blocks the formation of UL148 structures”. On to `C/C=C(/C)C(=O)O[C@H]1C(C)=C2[C@H]([C@@H]1OC(=O)CCCCCCC)[C@@](C)(OC(C)=O)C[C@H](OC(=O)CCC)[C@@]1(O)[C@H]2OC(=O)[C@@]1(C)O` [Tg, thapsigargin], for which, in the test with PERK, the “decreased mobility of the anti-PERK immunoreactive band (PERK autophosphorylation)” value is given as “readily observed”. Further, the phospho-IRE1 signal result in the test on IRE1 [3] is reported as “robust phospho-IRE1 signal”.

B1: UL148: viral ER-resident glycoprotein from human cytomegalovirus, ectopically expressed with a C-terminal HA tag (protein, UniProt F5H8Q3 21-316, looked up)
Membrane protein UL148: SRDYVHVRLLSYRGDPLVFKHTFSGVRRPFTELGWAACRDWDSMHCTPFWSTDLEQMTDSVRRYSTVSPGKEVTLQLHGNQTVQPSFLSFTCRLQLEPVVENVGLYVAYVVNDGERPQQFFTPQVDVVRFALYLETLSRIVEPLESGRLTVEFDTPDLALAPDLVSSLFVAGHGETDFYMNWTLRRSQTHYLEEMALQVEILKPRGVRHRAIIHHPKLQPGVGLWIDFCVYRYNARLTRGYVRYTLSPKARLPAKAEGWLVSLDRFIVQYLNTLLITMMAAIWARVLITYLVSRRR
modifications: C-terminal HA tag
As for B1, the “decrease in protein synthesis compared to carrier-alone control” value in test [4] was about 50%.
